{
  "source": "paper PMC8230315",
  "about": "“A Pan-Inhibitor for Protein Arginine Methyltransferase Family Enzymes” (Biomolecules, 2021)",
  "assay_type_in_all_cases": "biochemical",
  "key": {"PRMT1 [1]": {"molecular_target": "T1, PRMT1 (Homo sapiens, UniProt Q99873)", "T1 sequence (Q99873 whole entry, species assumed)": "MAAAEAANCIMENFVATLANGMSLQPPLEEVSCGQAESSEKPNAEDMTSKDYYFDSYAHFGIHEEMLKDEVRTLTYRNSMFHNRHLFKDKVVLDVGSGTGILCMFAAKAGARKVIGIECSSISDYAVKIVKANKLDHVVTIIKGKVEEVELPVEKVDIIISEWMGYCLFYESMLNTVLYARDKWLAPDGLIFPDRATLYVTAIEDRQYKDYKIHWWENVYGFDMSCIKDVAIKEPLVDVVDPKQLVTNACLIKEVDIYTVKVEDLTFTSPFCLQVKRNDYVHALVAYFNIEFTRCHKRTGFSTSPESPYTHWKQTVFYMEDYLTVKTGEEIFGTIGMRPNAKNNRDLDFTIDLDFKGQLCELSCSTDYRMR", "assay": "SAHH-coupled fluorescence assay, PRMT1 inhibition", "description": "A fluorescence-based SAHH-coupled assay was used to evaluate the IC50 values of inhibitors by monitoring the production of SAH from SAM after methylation. […] The fluorescence signal was monitored on a BMG CLARIOstar microplate reader with excitation at 400 nm and emission at 465 nm for 18 min. Data were processed using GraphPad Prism software 7.0. All experiments were performed in duplicate.\nThe fluorescence signal was monitored on a BMG CLARIOstar microplate reader with excitation at 400 nm and emission at 465 nm for 18 min. Data were processed using GraphPad Prism software 7.0. All experiments were performed in duplicate. […]."}, "NTMT1": {"tested_on": "NTMT1", "assay": "Selectivity SAHH-coupled fluorescence assay, NTMT1", "text": "(§1) We chose the top four potent compounds (6b and 6l–n) to investigate their selectivities against several in-house methyltransferases including protein arginine methyltransferase TbPRMT7, two members of the protein lysine methyltransferase PKMT (G9a and SETD7), protein N-terminal methyltransferase 1 (NTMT1), and a small molecule methyltransferase nicotinamide N-methyltransferase (NNMT), all of which have a SAM binding site.\n(§2) A fluorescence-based SAHH-coupled assay was applied to study the effect of the compound on methyltransferase activity of PRMT7, NTMT1, SETD7, G9a, NNMT, and SAHH. For PRMT7, the assay was performed in a final well volume of 100 μL: 25 mM Tris (pH = 7.5), 50 mM KCl, 0.01% Triton X-100, 5 μM SAHH, 0.2 μM PRMT7, 3 μM AdoMet, and 15 μM ThioGlo1. After incubation for 10 min with the inhibitor, reactions were initiated by the addition of 60 μM H4-21 peptide, and the reaction was monitored for 15 min. […] After incubation for 10 min with the inhibitor, reactions were initiated by the addition of 0.5 μM GPKRIA peptide, and the reaction was monitored for 15 min. […] After incubation for 10 min with the inhibitor, reactions were initiated by the addition of 90 μM H3-21 peptide, and the reaction was monitored for 15 min. […] After incubation for 10 min with the inhibitor, reactions were initiated by the addition of 10 μM nicotinamide, and the reaction was monitored for 18 min. […]"}, "G9a": {"tested_on": "G9a", "assay": "Selectivity SAHH-coupled fluorescence assay, G9a", "text": "as §1, §2"}, "PRMT1 [2]": {"molecular_target": "T1, PRMT1", "assay": "HotSpot radioisotope 3H-AdoMet methyltransferase assay (Reaction Biology), PRMT1", "description": "(§3) Future studies will focus on obtaining structural information of II757 bound to PRMTs to inform how to connect to a substrate portion to increase both potency and selectivity for each PRMT.\n(§4) Figure 6 Selectivity of II757 against the panel of PRMTs. II757 was tested in 10 doses with threefold serial dilution in the HotSpot methyltransferase assay at reaction biology. TEXT PRINTED IN THE PICTURE: II757: IC50 (nM) PRMT1: 16.4; IC50 (nM) PRMT3: 321; IC50 (nM) PRMT4: 5.05; IC50 (nM) PRMT5/MEP50 Complex: 18.2; IC50 (nM) PRMT5 (C449S)/MEP50: 36.6; IC50 (nM) PRMT6: 30.5; IC50 (nM) PRMT7: 555; IC50 (nM) PRMT8: 32.1"}, "PRMT4": {"molecular_target": "T2, PRMT4 (Homo sapiens, UniProt Q86X55)", "T2 construct": "purchased Reaction Biology", "T2 sequence (Q86X55 1-608)": "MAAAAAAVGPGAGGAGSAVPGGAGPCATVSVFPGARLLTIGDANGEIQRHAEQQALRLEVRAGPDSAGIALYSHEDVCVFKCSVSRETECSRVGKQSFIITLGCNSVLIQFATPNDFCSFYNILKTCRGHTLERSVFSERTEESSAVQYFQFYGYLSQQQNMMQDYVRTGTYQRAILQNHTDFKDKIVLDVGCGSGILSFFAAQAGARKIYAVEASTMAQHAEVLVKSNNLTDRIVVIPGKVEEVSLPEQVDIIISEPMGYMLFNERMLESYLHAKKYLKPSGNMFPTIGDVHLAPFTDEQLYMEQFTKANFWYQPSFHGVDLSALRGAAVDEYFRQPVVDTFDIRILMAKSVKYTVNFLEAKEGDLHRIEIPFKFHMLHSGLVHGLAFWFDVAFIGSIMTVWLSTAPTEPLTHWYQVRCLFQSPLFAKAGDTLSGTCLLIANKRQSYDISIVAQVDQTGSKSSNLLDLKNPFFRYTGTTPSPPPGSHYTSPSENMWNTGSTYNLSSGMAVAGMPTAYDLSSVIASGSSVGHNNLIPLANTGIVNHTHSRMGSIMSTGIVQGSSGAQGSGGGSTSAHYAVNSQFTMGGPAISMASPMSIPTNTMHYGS", "assay": "HotSpot radioisotope 3H-AdoMet methyltransferase assay, PRMT4", "conditions": "IC50 (nM) PRMT4, 10 doses, threefold serial dilution", "description": "as §3, §4"}, "PRMT6": {"molecular_target": "T3, PRMT6 (Homo sapiens, UniProt Q96LA8)", "T3 construct": "purchased Reaction Biology", "T3 sequence (Q96LA8 whole entry)": "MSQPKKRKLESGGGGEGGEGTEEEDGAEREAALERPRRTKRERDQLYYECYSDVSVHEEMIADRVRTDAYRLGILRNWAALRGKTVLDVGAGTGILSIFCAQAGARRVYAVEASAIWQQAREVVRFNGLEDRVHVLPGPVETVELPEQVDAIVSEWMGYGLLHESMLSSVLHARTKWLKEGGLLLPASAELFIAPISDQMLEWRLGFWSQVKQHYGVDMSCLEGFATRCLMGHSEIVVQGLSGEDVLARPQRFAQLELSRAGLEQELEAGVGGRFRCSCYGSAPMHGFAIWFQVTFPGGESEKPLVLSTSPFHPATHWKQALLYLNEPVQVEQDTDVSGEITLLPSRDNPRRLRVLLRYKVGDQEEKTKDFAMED", "assay": "HotSpot radioisotope 3H-AdoMet methyltransferase assay, PRMT6", "description": "as §3, §4"}},
  "note": "Read-outs that look alike come from different tables or passages of the source.",
  "data": [
    {"smiles": "N=C(NCCCSC[C@H]1O[C@@H](n2cnc3c(N)ncnc32)[C@H](O)[C@@H]1O)Nc1cccc(Br)c1", "note": "[Compound 6l, 1-(3-((((2S,3S,4R,5R)-5-(6-amino-9H-purin-9-yl)-3,4-dihydroxytetrahydrofuran-2-yl)methyl)thio)propyl)-3-(3-bromophenyl)guanidine]", "values": [
      {"measurement": "IC50", "setting": "PRMT1 [1]; PRMT1 0.1 µM, substrate concentration at 4 Km (footnote a), n = 2, mean ± SD", "result": "90 ± 40", "unit": "nM"},
      {"measurement": "Ki", "setting": "PRMT1 [1]; SAHH-coupled assay, PRMT1, read-out: apparent Ki", "result": "~18", "unit": "nM"},
      {"measurement": "Ki", "setting": "PRMT1 [1]; calculated as Ki, app = IC50/(1 + [S]/Km), read-out: Ki, app", "result": "18 ± 8", "unit": "nM"},
      {"measurement": "selectivity over NTMT1", "setting": "NTMT1", "result": "over 1000 fold"},
      {"measurement": "selectivity over G9a", "setting": "G9a", "result": "over 1000 fold"},
      {"measurement": "IC50", "setting": "PRMT1 [2]", "result": 16.4, "unit": "nM"},
      {"measurement": "IC50", "setting": "PRMT4", "result": 5, "unit": "nM"},
      {"measurement": "IC50", "setting": "PRMT6", "result": 30.5, "unit": "nM"}
    ]}
  ]
}
